Data from ChEMBL document CHEMBL2073967, “Characterisation of cerivastatin as a P-glycoprotein substrate: studies in P-glycoprotein-expressing cell monolayers and mdr1a/b knock-out mice” (Naunyn Schmiedebergs Arch Pharmacol, 2004).

Molecular target: ATP-dependent translocase ABCB1 (Homo sapiens, UniProt P08183)
Test: TP_TRANSPORTER: transepithelial transport in L-MDR1 cells
Format: functional, cell-based
Conditions: pig

Chain of ATP-dependent translocase ABCB1 (P08183 whole entry): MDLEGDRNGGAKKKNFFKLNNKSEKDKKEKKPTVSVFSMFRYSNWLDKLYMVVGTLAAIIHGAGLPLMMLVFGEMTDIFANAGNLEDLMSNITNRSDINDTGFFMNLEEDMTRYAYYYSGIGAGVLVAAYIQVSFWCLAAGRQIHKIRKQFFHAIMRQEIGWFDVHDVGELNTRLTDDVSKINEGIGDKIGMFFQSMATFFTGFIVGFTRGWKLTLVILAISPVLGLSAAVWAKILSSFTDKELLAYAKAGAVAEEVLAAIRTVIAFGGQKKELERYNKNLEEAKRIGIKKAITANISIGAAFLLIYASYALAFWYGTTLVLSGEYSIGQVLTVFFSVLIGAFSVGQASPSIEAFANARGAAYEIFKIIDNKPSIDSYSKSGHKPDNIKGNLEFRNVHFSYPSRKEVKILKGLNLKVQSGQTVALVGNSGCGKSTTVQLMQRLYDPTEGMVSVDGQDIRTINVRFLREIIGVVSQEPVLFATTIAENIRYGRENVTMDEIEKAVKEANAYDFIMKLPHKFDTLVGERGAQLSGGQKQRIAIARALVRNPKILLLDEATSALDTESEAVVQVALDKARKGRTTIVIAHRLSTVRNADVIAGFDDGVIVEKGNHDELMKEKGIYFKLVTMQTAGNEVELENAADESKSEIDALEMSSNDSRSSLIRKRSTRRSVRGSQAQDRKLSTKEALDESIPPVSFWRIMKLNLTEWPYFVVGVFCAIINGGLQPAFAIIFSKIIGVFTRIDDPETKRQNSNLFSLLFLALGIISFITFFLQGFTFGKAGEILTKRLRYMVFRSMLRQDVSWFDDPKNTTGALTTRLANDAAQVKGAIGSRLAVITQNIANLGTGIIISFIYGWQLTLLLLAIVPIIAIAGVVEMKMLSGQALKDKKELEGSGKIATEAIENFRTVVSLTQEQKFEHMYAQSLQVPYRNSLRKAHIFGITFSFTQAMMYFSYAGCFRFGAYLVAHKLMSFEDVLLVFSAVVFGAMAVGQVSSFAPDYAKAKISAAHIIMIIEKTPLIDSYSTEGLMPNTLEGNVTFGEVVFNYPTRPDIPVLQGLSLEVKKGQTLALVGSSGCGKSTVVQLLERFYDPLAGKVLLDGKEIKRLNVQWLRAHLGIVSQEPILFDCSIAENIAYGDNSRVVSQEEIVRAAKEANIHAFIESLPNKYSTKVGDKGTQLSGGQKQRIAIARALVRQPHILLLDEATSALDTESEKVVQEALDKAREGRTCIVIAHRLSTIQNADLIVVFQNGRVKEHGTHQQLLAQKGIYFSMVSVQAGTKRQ

With `COCc1c(C(C)C)nc(C(C)C)c(/C=C/[C@@H](O)C[C@@H](O)CC(=O)O)c1-c1ccc(F)cc1` [CERIVASTATIN] the Activity was “substrate [+]”.
